Test results from article PMC2653091 (Journal of medicinal chemistry, 2009).
Where two headings read alike, the source gives them in different places. Where no end group is shown, it is not given here.

Legend:
NPSR = conditions: cited from earlier work
mouse NPSR = target: T1, mouse NPSR (Mus musculus, UniProt Q8BZP8); assay: Calcium mobilization in HEK293mNPSR cells, agonist mode; format: cell-based
T1 sequence (Q8BZP8 1-371): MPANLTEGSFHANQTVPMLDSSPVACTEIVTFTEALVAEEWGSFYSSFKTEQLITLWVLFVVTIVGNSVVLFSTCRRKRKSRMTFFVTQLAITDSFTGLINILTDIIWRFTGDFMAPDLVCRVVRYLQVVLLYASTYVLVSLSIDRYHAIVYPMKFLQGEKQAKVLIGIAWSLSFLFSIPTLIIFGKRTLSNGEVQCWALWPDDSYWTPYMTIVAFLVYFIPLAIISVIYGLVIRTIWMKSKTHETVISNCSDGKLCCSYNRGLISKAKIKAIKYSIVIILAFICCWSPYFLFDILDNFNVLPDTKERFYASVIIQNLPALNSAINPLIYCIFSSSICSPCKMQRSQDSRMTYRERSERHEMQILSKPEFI

mouse vertical activity = conditions: at doses able to counteract the stimulatory effect of exogenously applied NPS; cited from earlier work

Compound: [D-Ala^5]NPS
- Pharmacological profile at NPSR (NPSR; ref 15): partial agonist

Compound: SFRNGVGTGMKKTSFQRAKS [NPS, Neuropeptide S]
- Emax (mouse NPSR; read-out: Agonist Emax ± sem, SEM): 295 ± 22%

Compound: [Aib^5]NPS
- Pharmacological profile at NPSR (NPSR; ref 15): partial agonists

Compound: [Ala^3]NPS
- Pharmacological profile at NPSR (NPSR; ref 17): partial agonist

Compound: O=C(NCc1ccc(F)cc1)N1CCN2C(=O)OC(c3ccccc3)(c3ccccc3)C2C1 (stereo not drawn) [SHA 68, 3-Oxo-1,1-diphenyl-tetrahydro-oxazolo[3,4-a]pyrazine-7-carboxylic acid 4-fluoro-benzylamide]
- Pharmacological profile at NPSR (NPSR; ref 18): pure antagonist
- Effect per se on mouse vertical activity (mouse vertical activity): selective reduction of mouse vertical activity

Compound: [Ala^5]NPS (SFRNAVGTGMKKTSFQRAKS; Neuropeptide S; UniProt P0C0P6 70-89, looked up, variant G5A)
- Pharmacological profile at NPSR (NPSR; ref 6, 15): high potency NPSR full agonist
- Pharmacological profile at NPSR (NPSR; ref 15): full agonist

Compound: [Trp^5]NPS (SFRNWVGTGMKKTSFQRAKS; Neuropeptide S; UniProt P0C0P6 70-89, looked up, variant G5W) [Compound 2]
- Agonist effect at 10 μM (crc incomplete) (mouse NPSR; 10 μM, % over the baseline, HEK293mNPSR): 30%
